# Patent US20060074243A1, “Hydroxamic acid and amide compounds and their use as protease inhibitors” (Pharmacia Corporation, priority 2002, published 2006)
# Experiments:
# Test in all cases: In vitro MMP inhibition analysis (fluorogenic peptide substrate cleavage), Ki
# Format in all cases: biochemical
# Conditions in all cases: Table 2
# Human recombinant MMP-2 = biological target: T1, Human recombinant MMP-2 (Homo sapiens, UniProt P08253)
# T1 construct: made in house; host or cells: MMP-2-transfected p2AHT2 cells
# T1 sequence (P08253 110-660): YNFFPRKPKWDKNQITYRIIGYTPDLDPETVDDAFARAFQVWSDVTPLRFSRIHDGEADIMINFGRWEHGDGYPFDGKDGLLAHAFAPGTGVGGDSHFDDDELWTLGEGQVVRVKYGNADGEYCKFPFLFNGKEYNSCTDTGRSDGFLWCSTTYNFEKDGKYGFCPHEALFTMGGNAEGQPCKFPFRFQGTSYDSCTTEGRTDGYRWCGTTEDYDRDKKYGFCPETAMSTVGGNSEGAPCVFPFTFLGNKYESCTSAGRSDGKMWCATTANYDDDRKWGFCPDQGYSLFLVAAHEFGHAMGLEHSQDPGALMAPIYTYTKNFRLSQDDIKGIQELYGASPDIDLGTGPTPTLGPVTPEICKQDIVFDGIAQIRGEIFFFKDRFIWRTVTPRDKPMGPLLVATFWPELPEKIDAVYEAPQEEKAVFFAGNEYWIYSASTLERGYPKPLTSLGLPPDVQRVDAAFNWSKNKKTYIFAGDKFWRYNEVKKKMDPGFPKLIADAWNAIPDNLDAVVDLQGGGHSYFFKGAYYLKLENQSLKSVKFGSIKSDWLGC
# Outline: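 Human recombinant MMP-2 from transfected p2AHT2 cells was activated with APMA or trypsin and incubated 1 h at room temperature with compounds and 4 μM MCA-RPLGL(Dpa)ARER-NH2. Buffer was pH 7.5 Tris/NaCl/CaCl2, and fluorescence was read at ex 330/em 420 nm. Ki was fitted by Morrison's equation without substrate correction.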
# Human recombinant MMP-9 = biological target: T2, Human recombinant MMP-9 (Homo sapiens, UniProt P14780)
# T2 construct: made in house; host or cells: MMP-9-transfected HT1080 cells (spent media)
# Outline: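 Recombinant MMP-9 purified from transfected HT1080 cell media, activated with APMA, trypsin or recombinant MMP-3, assayed in Tris buffer pH 7.5 with CaCl2 and 4 μM fluorogenic MCA/Dpa peptide, 1 h at room temperature (ex 330/em 420 nm). Ki from Morrison-equation regression of velocity; substrate at or below Km, uncorrected.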
# Human recombinant MMP-14 = biological target: T3, Human recombinant MMP-14 (Homo sapiens, UniProt P50281)
# T3 construct: The catalytic domain enzyme was expressed in E. coli inclusion bodies, solubilized in urea; made in house
# Outline: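 Refolded catalytic domain of MMP-14 expressed in E. coli, activated with APMA or trypsin, incubated 1 h at room temperature with 4 μM MCA-peptide substrate in Tris buffer pH 7.5 with CaCl2. Cleavage rate followed by fluorescence (ex 330/em 420 nm). Ki from Morrison-equation fit; substrate at or below Km, so no substrate correction.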
# T2 sequence (P14780 107-707 limits assumed): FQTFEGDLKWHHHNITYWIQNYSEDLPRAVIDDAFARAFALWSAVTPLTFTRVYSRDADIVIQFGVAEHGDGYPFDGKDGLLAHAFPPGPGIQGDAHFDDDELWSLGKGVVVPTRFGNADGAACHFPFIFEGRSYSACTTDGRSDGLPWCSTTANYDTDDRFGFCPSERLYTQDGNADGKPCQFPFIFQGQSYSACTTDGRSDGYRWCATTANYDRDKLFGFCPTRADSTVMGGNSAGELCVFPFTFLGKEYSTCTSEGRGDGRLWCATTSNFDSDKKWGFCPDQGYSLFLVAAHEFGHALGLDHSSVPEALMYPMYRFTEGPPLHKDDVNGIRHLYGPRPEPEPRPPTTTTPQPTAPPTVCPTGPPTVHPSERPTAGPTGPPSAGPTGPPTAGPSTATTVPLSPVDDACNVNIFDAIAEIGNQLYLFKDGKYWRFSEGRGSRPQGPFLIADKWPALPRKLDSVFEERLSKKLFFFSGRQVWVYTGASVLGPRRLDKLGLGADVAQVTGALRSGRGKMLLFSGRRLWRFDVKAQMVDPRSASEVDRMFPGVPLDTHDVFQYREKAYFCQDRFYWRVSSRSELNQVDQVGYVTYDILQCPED
Ki (Human recombinant MMP-2) [nM],Ki (Human recombinant MMP-9) [nM],Ki (Human recombinant MMP-14) [nM],SMILES
0.13,4.23,27.1,O=C(NO)C1(S(=O)(=O)c2ccc(-c3ccc4c(c3)OCO4)cc2)CCOCC1 [Example 188]
1.7,32.3,4700,O=C(NCC1CCCCC1)c1cnc(-c2ccc(S(=O)(=O)C3(C(=O)NO)CCOCC3)cc2)cn1 [Example 190]
0.75,1.43,930,O=C(NCC1CC1)c1cnc(-c2ccc(S(=O)(=O)C3(C(=O)NO)CCOCC3)cc2)cn1 [Example 191]
0.89,41.1,5920,O=C(NCC(F)(F)C(F)(F)F)c1cnc(-c2ccc(S(=O)(=O)C3(C(=O)NO)CCOCC3)cc2)cn1 [Example 192]
1.34,11.5,96.7,O=C(NO)C1(S(=O)(=O)c2ccc(-c3nc4ccccc4o3)cc2)CCOCC1 [Example 193]
176,1260,> 10000,O=C(NO)C1(S(=O)(=O)c2ccc(-c3cnc4ccccc4n3)cc2)CCOCC1 [Example 194]
5.74,32.2,1790,O=C(NO)C1(S(=O)(=O)c2ccc(-c3nc4ccccc4s3)cc2)CCOCC1 [Example 195]
947,430,> 10000,O=C1c2ccccc2C(=O)N1CCCOc1cccc(-c2ccc(S(=O)(=O)C3(C(=O)NO)CCOCC3)cc2)c1 [Example 196]
6200,> 10000,> 10000,O=C(NO)C1(S(=O)(=O)c2ccc(-c3ccccc3CO)cc2)CCOCC1 [Example 197]
2.16,28.4,5120,O=C(NC1CCCC1)c1ccc(-c2ccc(S(=O)(=O)C3(C(=O)NO)CCOCC3)cc2)nc1 [Example 198]
0.085,0.147,586,C#CCN1CCC(C(=O)NO)(S(=O)(=O)c2ccc(-c3ccc(CCC(F)(F)C(F)(F)F)cn3)cc2)CC1 [Example 199]
0.404,0.648,942,COCCN1CCC(C(=O)NO)(S(=O)(=O)c2ccc(-c3cnc(OCCC4CCCC4)cn3)cc2)CC1 [Example 200]
0.045,0.097,221,O=C(NO)C1(S(=O)(=O)c2ccc(-c3ccc(CCC(F)(F)C(F)(F)F)cn3)cc2)CCOCC1 [Example 201]
0.32,0.578,1260,O=C(NO)C1(S(=O)(=O)c2ccc(-c3ccc(CCCC(F)(F)F)cn3)cc2)CC=CC1 [Example 202]
1.77,61.4,7920,CCCCNC(=O)c1ccc(-c2ccc(S(=O)(=O)C3(C(=O)NO)CCOCC3)cc2)nc1 [Example 203]
4.32,11.8,6370,CC(C)NC(=O)c1ccc(-c2ccc(S(=O)(=O)C3(C(=O)NO)CCOCC3)cc2)nc1 [Example 204]
15.1,21.8,7630,CC(C)(C)NC(=O)c1ccc(-c2ccc(S(=O)(=O)C3(C(=O)NO)CCOCC3)cc2)nc1 [Example 205]
2.98,1.8,> 10000,CCCCc1cnc(-c2ccc(S(=O)(=O)C3(C(=O)NO)CCN(CCOC)CC3)cc2)cn1 [Example 206]

Ki (Human recombinant MMP-2) [nM],Ki (Human recombinant MMP-9) [nM],Ki (Human recombinant MMP-14) [nM],SMILES
4.99,78,> 10000,CC[C@@H](C)NC(=O)c1ccc(-c2ccc(S(=O)(=O)C3(C(=O)NO)CCOCC3)cc2)nc1 [Example 207]
10.6,39.4,> 10000,CC[C@H](C)NC(=O)c1ccc(-c2ccc(S(=O)(=O)C3(C(=O)NO)CCOCC3)cc2)nc1 [Example 208]
0.081,0.138,272,COCCOC1CCC(C(=O)NO)(S(=O)(=O)c2ccc(-c3ccc(CCCC(F)(F)F)cn3)cc2)CC1 (stereo not drawn) [Example 209]
1.01,0.75,3430,COCCOC1CCC(C(=O)NO)(S(=O)(=O)c2ccc(-c3cnc(CCCC(F)(F)F)cn3)cc2)CC1 (stereo not drawn) [Example 210]
0.246,9.78,773,O=C(CCc1nccs1)c1ccc(-c2ccc(S(=O)(=O)C3(C(=O)NO)CCOCC3)cc2)cc1 [Example 211]
34.7,437,> 10000,O=C(Cc1ccc(-c2ccc(S(=O)(=O)C3(C(=O)NO)CCOCC3)cc2)nc1)N1CCCCC1 [Example 212]
3.57,4.8,> 10000,CCN1CCC(C(=O)NO)(S(=O)(=O)c2ccc(-c3cnc(CCC(F)(F)F)cn3)cc2)CC1 [Example 213]
2.09,2.05,6980,COCCN1CCC(C(=O)NO)(S(=O)(=O)c2ccc(-c3cnc(CCC(F)(F)F)cn3)cc2)CC1 [Example 214]
1.15,1,5070,O=C(NO)C1(S(=O)(=O)c2ccc(-c3cnc(CCC(F)(F)F)cn3)cc2)CCN(C2CC2)CC1 [Example 215]
2.51,13.3,2550,C#CCN(C)C(=O)c1ccc2cc(-c3ccc(S(=O)(=O)C4(C(=O)NO)CCOCC4)cc3)ccc2c1 [Example 216]
9.06,5.22,> 10000,CCN1CCC(C(=O)NO)(S(=O)(=O)c2ccc(-c3cnc(CCCC(F)(F)F)cn3)cc2)CC1 [Example 217]
1.93,0.938,> 10000,O=C(NO)C1(S(=O)(=O)c2ccc(-c3cnc(CCCC(F)(F)F)cn3)cc2)CCN(C2CC2)CC1 [Example 218]
0.588,9.25,1760,Cc1nc(CCc2ccc(-c3ccc(S(=O)(=O)C4(C(=O)NO)CCOCC4)cc3)cc2)no1 [Example 219]
0.539,50.5,> 2500,O=C(NCC1CC1)c1ccc2cc(-c3ccc(S(=O)(=O)C4(C(=O)NO)CCOCC4)cc3)ccc2c1 [Example 220]
5.61,16.7,6850,CN(C)C(=O)c1ccc2cc(-c3ccc(S(=O)(=O)C4(C(=O)NO)CCOCC4)cc3)ccc2c1 [Example 221]
7.8,29.5,> 10000,O=C(c1ccc2cc(-c3ccc(S(=O)(=O)C4(C(=O)NO)CCOCC4)cc3)ccc2c1)N1CCOCC1 [Example 222]
11,34.3,> 10000,O=C(c1ccc2cc(-c3ccc(S(=O)(=O)C4(C(=O)NO)CCOCC4)cc3)ccc2c1)N1CCCCC1 [Example 223]
